Laboratory results reported in paper PMC8632988, “Inhibition of SYK and cSrc kinases can protect bone and cartilage in preclinical models of osteoarthritis and rheumatoid arthritis” (Scientific Reports, 2021).

How the values were obtained:
[1] = test system: Wistar rats, MIA osteoarthritis model; test: Monosodium iodoacetate induced osteoarthritis in rats; assay type: in vivo, rat
Experimental: Monosodium iodoacetate (MIA) osteoarthritis model was performed at Pharmenterprises, Russia according to the known procedure[32] and approved by Ethics Committee of Pharmenterprises. Male 10 week old Wistar rats were divided into eight groups: negative control (#1), positive control (#2) and six treatment groups (#3–8), ten rats in each group. Group #1 was left intact while rats in groups #2–8 were anesthetized on the day 0 with intraperitoneal injection of Zoletil and Xylazine mixture and given a single intra-articular injection of MIA through the infrapatellar ligament of the right knee. Rats were treated as follows: (#1, #2) 0.5% solution of methylcellulose in PBS (pH = 3) as vehicle control, (#3, #5) 100 mg/kg MT-SYK-03, (#4, #6) 500 mg/kg MT-SYK-03, (#7) 50 mg/kg nalgesin and (#8) 0.1 mg/kg zoledronic acid. Rats in groups #1–4 received treatment intragastrically QD, 25 and 1 h before the MIA injection, and then daily until the end of the study on the day 28. Rats in groups #5–6 received treatment intragastrically QD from the day 7 until the end of the study. Rats in group #7 were treated QD starting on the day 14 and until the end of the study. Finally, rats in group #8 were treated subcutaneously immediately after the MIA injection and then every third day until the study end. Disease progression was monitored by measuring mechanical hyperalgesia, mechanical allodynia and grip strength of hind paws on the days 14, 21, and 28, just before the treatment, and 1, 3, 6 h after it.

SYK = SYK (Homo sapiens, UniProt P43405); test: Kinase selectivity profile assay; assay type: biochemical; parameters: purchased Reaction Biology Corporation; details: 500 nM; relative to DMSO; read-out: Residual enzymatic activity
Excerpt: Kinase activity data was expressed as the percent remaining kinase activity in test samples compared to vehicle (dimethyl sulfoxide) reactions based on the radioactivity of reaction products (see Table S2). Experiment was replicated twice.

[2] = MT-SYK-03 100 mg/kg, 7–28 days QD, 14 day, 1 hour after admin.
[3] = MT-SYK-03 100 mg/kg, 7–28 days QD, 14 day, 3 hours after admin.
[4] = MT-SYK-03 100 mg/kg, 7–28 days QD, 21 day, 1 hour after admin.
[5] = MT-SYK-03 100 mg/kg, 7–28 days QD, 21 day, 3 hours after admin.
[6] = MT-SYK-03 100 mg/kg, 7–28 days QD, 28 day, 1 hour after admin.
[7] = MT-SYK-03 100 mg/kg, 7–28 days QD, 28 day, 3 hours after admin.
[8] = MT-SYK-03 100 mg/kg, −1–28 days QD, 14 day, 1 hour after admin.
[9] = MT-SYK-03 100 mg/kg, −1–28 days QD, 14 day, 3 hours after admin.
[10] = MT-SYK-03 100 mg/kg, −1–28 days QD, 21 day, 1 hour after admin.
[11] = MT-SYK-03 100 mg/kg, −1–28 days QD, 21 day, 3 hours after admin.
[12] = MT-SYK-03 100 mg/kg, −1–28 days QD, 28 day, 1 hour after admin.
[13] = MT-SYK-03 100 mg/kg, −1–28 days QD, 28 day, 3 hours after admin.
[14] = MT-SYK-03 500 mg/kg, 7–28 days QD, 14 day, 1 hour after admin.
[15] = MT-SYK-03 500 mg/kg, 7–28 days QD, 14 day, 3 hours after admin.
[16] = MT-SYK-03 500 mg/kg, 7–28 days QD, 21 day, 1 hour after admin.
[17] = MT-SYK-03 500 mg/kg, 7–28 days QD, 21 day, 3 hours after admin.
[18] = MT-SYK-03 500 mg/kg, 7–28 days QD, 28 day, 1 hour after admin.
[19] = MT-SYK-03 500 mg/kg, 7–28 days QD, 28 day, 3 hours after admin.
[20] = MT-SYK-03 500 mg/kg, −1–28 days QD, 14 day, 1 hour after admin.
[21] = MT-SYK-03 500 mg/kg, −1–28 days QD, 14 day, 3 hours after admin.
[22] = MT-SYK-03 500 mg/kg, −1–28 days QD, 21 day, 1 hour after admin.
[23] = MT-SYK-03 500 mg/kg, −1–28 days QD, 21 day, 3 hours after admin.
[24] = MT-SYK-03 500 mg/kg, −1–28 days QD, 28 day, 1 hour after admin.
[25] = MT-SYK-03 500 mg/kg, −1–28 days QD, 28 day, 3 hours after admin.

Question: `COc1cc(Nc2ncnc(Nc3cc4c(cn3)NC(=O)C(C)(C)O4)n2)cc(OC)c1OC` [MT-SYK-03] was tested. Which “hind paws grip strength” value [1, 2] did it give?
Answer: 70.1 ± 10.8 % from the initial one

Question: What about the “mechanical allodynia pain threshold” value [1, 2] of the same molecule?
Answer: 70.2±7.7 % from the initial one

Question: And the mechanical hyperalgesia [1, 2]?
Answer: 51.9 ± 4.1 & % from the initial one

Question: What about the “hind paws grip strength” value [1, 3] of the same molecule?
Answer: 58.9 ± 7.8 & % from the initial one

Question: What about the “mechanical allodynia pain threshold” value [1, 3] of the same molecule?
Answer: 78.7±10.6 % from the initial one

Question: What about the mechanical hyperalgesia [1, 3] of the same molecule?
Answer: 50.6 ± 5.6 & % from the initial one

Question: What about the “hind paws grip strength” value [1, 4] of the same molecule?
Answer: 76.3 ± 6.2 & % from the initial one

Question: What about the “mechanical allodynia pain threshold” value [1, 4] of the same molecule?
Answer: 75.3±15.4 % from the initial one

Question: What about the mechanical hyperalgesia [1, 4] of the same molecule?
Answer: 85.1 ± 5 % from the initial one

Question: What about the “hind paws grip strength” value [1, 5] of the same molecule?
Answer: 62.56 ± 7.58 % from the initial one

Question: And the “mechanical allodynia pain threshold” value [1, 5]?
Answer: 73.1±7.9 % from the initial one

Question: What about the mechanical hyperalgesia [1, 5] of the same molecule?
Answer: 73.5 ± 6.9 & % from the initial one

Question: What about the “hind paws grip strength” value [1, 6] of the same molecule?
Answer: 74.4 ± 13.0 % from the initial one

Question: What about the “mechanical allodynia pain threshold” value [1, 6] of the same molecule?
Answer: 61.7±5.8 % from the initial one

Question: What about the mechanical hyperalgesia [1, 6] of the same molecule?
Answer: 67.7 ± 9.8 & % from the initial one

Question: What about the “hind paws grip strength” value [1, 7] of the same molecule?
Answer: 58.1 ± 10.0 % from the initial one

Question: And the “mechanical allodynia pain threshold” value [1, 7]?
Answer: 78.3±8 % from the initial one

Question: And the mechanical hyperalgesia [1, 7]?
Answer: 71.24 ± 7.99 % from the initial one

Question: What about the “hind paws grip strength” value [1, 8] of the same molecule?
Answer: 56.3 ± 5.2 & % from the initial one

Question: What about the “mechanical allodynia pain threshold” value [1, 8] of the same molecule?
Answer: 136.3±22.5 & % from the initial one

Question: What about the mechanical hyperalgesia [1, 8] of the same molecule?
Answer: 73.5 ± 10.5 & % from the initial one

Question: What about the “hind paws grip strength” value [1, 9] of the same molecule?
Answer: 58.7 ± 8.2 & % from the initial one

Question: And the “mechanical allodynia pain threshold” value [1, 9]?
Answer: 136.7±29.2 & % from the initial one

Question: What about the mechanical hyperalgesia [1, 9] of the same molecule?
Answer: 63.9 ± 7.5 & % from the initial one

Question: What about the “hind paws grip strength” value [1, 10] of the same molecule?
Answer: 76.5 ± 4.5 & % from the initial one

Question: What about the “mechanical allodynia pain threshold” value [1, 10] of the same molecule?
Answer: 107.7±12.8 & % from the initial one

Question: What about the mechanical hyperalgesia [1, 10] of the same molecule?
Answer: 74.4 ± 3.3 &# % from the initial one

Question: And the “hind paws grip strength” value [1, 11]?
Answer: 72.69 ± 9.18 % from the initial one

Question: What about the “mechanical allodynia pain threshold” value [1, 11] of the same molecule?
Answer: 95.5±4.7 & % from the initial one

Question: What about the mechanical hyperalgesia [1, 11] of the same molecule?
Answer: 80.5 ± 10.3 % from the initial one

Question: And the “hind paws grip strength” value [1, 12]?
Answer: 90.5 ± 14.0 % from the initial one

Question: And the “mechanical allodynia pain threshold” value [1, 12]?
Answer: 135.8±27.6 & % from the initial one

Question: And the mechanical hyperalgesia [1, 12]?
Answer: 65.1 ± 7.4 & % from the initial one

Question: And the “hind paws grip strength” value [1, 13]?
Answer: 88.6 ± 18.5 % from the initial one

Question: What about the “mechanical allodynia pain threshold” value [1, 13] of the same molecule?
Answer: 110.3±16.3 % from the initial one

Question: What about the mechanical hyperalgesia [1, 13] of the same molecule?
Answer: 67.38 ± 9.74 & % from the initial one

Question: And the “hind paws grip strength” value [1, 14]?
Answer: 68.2 ± 11.3 % from the initial one

Question: And the “mechanical allodynia pain threshold” value [1, 14]?
Answer: 75.7±3.6 % from the initial one

Question: And the mechanical hyperalgesia [1, 14]?
Answer: 51.1 ± 5.4 & % from the initial one

Question: What about the “hind paws grip strength” value [1, 15] of the same molecule?
Answer: 78.6 ± 12.1 % from the initial one

Question: What about the “mechanical allodynia pain threshold” value [1, 15] of the same molecule?
Answer: 82.7±12.8 % from the initial one

Question: What about the mechanical hyperalgesia [1, 15] of the same molecule?
Answer: 77.5 ± 6.9 & % from the initial one

Question: And the “hind paws grip strength” value [1, 16]?
Answer: 67.7 ± 7.9 & % from the initial one

Question: And the “mechanical allodynia pain threshold” value [1, 16]?
Answer: 74.5±13.9 % from the initial one

Question: And the mechanical hyperalgesia [1, 16]?
Answer: 56 ± 7.2 & % from the initial one

Question: And the “hind paws grip strength” value [1, 17]?
Answer: 68.23 ± 6.84 % from the initial one

Question: What about the “mechanical allodynia pain threshold” value [1, 17] of the same molecule?
Answer: 78.9±6.8 % from the initial one

Question: And the mechanical hyperalgesia [1, 17]?
Answer: 58.5 ± 7.1 & % from the initial one

Question: And the “hind paws grip strength” value [1, 18]?
Answer: 82.8 ± 9.5 % from the initial one

Question: And the “mechanical allodynia pain threshold” value [1, 18]?
Answer: 198.4±40.1 & % from the initial one

Question: And the mechanical hyperalgesia [1, 18]?
Answer: 75 ± 6.1 & % from the initial one

Question: What about the “hind paws grip strength” value [1, 19] of the same molecule?
Answer: 79.8 ± 4.3 % from the initial one

Question: What about the “mechanical allodynia pain threshold” value [1, 19] of the same molecule?
Answer: 161.1±30.5 & % from the initial one

Question: And the mechanical hyperalgesia [1, 19]?
Answer: 78.02 ± 9.37 % from the initial one

Question: And the “hind paws grip strength” value [1, 20]?
Answer: 62.8 ± 9.9 % from the initial one

Question: And the “mechanical allodynia pain threshold” value [1, 20]?
Answer: 113.9±9.7 & % from the initial one

Question: And the mechanical hyperalgesia [1, 20]?
Answer: 53.8 ± 4.4 & % from the initial one

Question: And the “hind paws grip strength” value [1, 21]?
Answer: 70.3 ± 7.0 & % from the initial one

Question: What about the “mechanical allodynia pain threshold” value [1, 21] of the same molecule?
Answer: 111.1±17.7 & % from the initial one

Question: What about the mechanical hyperalgesia [1, 21] of the same molecule?
Answer: 52.5 ± 3.3 & % from the initial one

Question: What about the “hind paws grip strength” value [1, 22] of the same molecule?
Answer: 89.6 ± 8.7 % from the initial one

Question: And the “mechanical allodynia pain threshold” value [1, 22]?
Answer: 105.8±13 & % from the initial one

Question: And the mechanical hyperalgesia [1, 22]?
Answer: 75.4 ± 6.4 % from the initial one

Question: What about the “hind paws grip strength” value [1, 23] of the same molecule?
Answer: 76.56 ± 4.83 % from the initial one

Question: What about the “mechanical allodynia pain threshold” value [1, 23] of the same molecule?
Answer: 98.1±5.7 & % from the initial one

Question: What about the mechanical hyperalgesia [1, 23] of the same molecule?
Answer: 64.7 ± 4.3 & % from the initial one

Question: And the “hind paws grip strength” value [1, 24]?
Answer: 86.3 ± 8.3 % from the initial one

Question: What about the “mechanical allodynia pain threshold” value [1, 24] of the same molecule?
Answer: 106.7±12 & % from the initial one

Question: And the mechanical hyperalgesia [1, 24]?
Answer: 53.5 ± 3.8 & % from the initial one

Question: And the “hind paws grip strength” value [1, 25]?
Answer: 82.3 ± 12.7 % from the initial one

Question: And the “mechanical allodynia pain threshold” value [1, 25]?
Answer: 99.2±5.5 & % from the initial one

Question: What about the mechanical hyperalgesia [1, 25] of the same molecule?
Answer: 61.04 ± 1.81 & % from the initial one

Question: And the “hind paws grip strength” value ([1]; rat MIA, days 14, 21, 28)?
Answer: trend toward restoration of hind paws grip strength

Question: What about the “Mechanical hyperalgesia pain threshold” value ([1]; rat MIA, prophylactic administration, 100 and 500 mg/kg) of the same molecule?
Answer: statistically significant increase of pain thresholds for both doses from day 14

Question: And the “mechanical allodynia pain threshold” value ([1]; rat MIA, prophylactic treatment regimen)?
Answer: on day 14 pain threshold was elevated in all measurements

Question: And the “Mechanical hyperalgesia pain threshold” value ([1]; rat MIA, therapeutic treatment regimen)?
Answer: statistically significant improvement appeared only on day 28 for higher dose

Question: What about the “mechanical allodynia pain threshold” value ([1]; rat MIA, treatment regimen) of the same molecule?
Answer: statistically significant on day 28 and only in the higher dose

Question: What about the remaining activity at 0.5 µM (SYK) of the same molecule?
Answer: 57.4%
